Reference: patent US8247211B2, “Glycopeptide antibiotics” (American Cyanamid Company, priority 2001, dated 2012)
In brackets after ≈: the same amount, converted by molar mass.

Tests used:
Experiment in all cases: In vitro antibacterial evaluation: minimum inhibitory concentration (MIC), broth dilution method
Assay type in all cases: cell-based
Enterococcus sp. = details: 18 hours at 35° C.
Outline: (§1)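 First, organisms are seeded at 5×10^5 CFU/mL into Muller-Hinton II […]. Next, antibiotic is applied across 64-0.06 μg/mL by broth dilution (NCCLS M7-A2). Finally, the lowest inhibitory concentration is recorded as MIC.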

Staphylococcus sp. = system: Staphylococcus sp.
Outline: as §1

Escherichia coli = details: 18 hours at 35° C.
Outline: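 Test strains, among them recent clinical isolates carrying methicillin, penicillin and/or vancomycin resistance, were inoculated at 5×10^5 CFU/mL. A broth dilution series spanning 64-0.06 μg/mL in Muller-Hinton II […] (NCCLS M7-A2) defined the MIC as the lowest growth-inhibiting concentration.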

Streptococcus sp. = details: 18 hours at 35° C.
Outline: as §1

[1] = broth dilution, inoculum 5×10^5 CFU/mL

CC(c1ccccc1)C1NC(=O)CNC(=O)C(CO)NC(=O)C(C(O)C2CNC(=N)N2C2OC(CO)C(O)C(O)C2O)NC(=O)C(C(O)C2CNC(=N)N2)NC(=O)C(Cc2ccc(OC3OC(CO)C(OC4OC(CO)C(O)C5OC6(CCCCCCCCCCCC6)OC45)C(O)C3O)cc2)NC1=O (stereo not drawn) [Example 210a, Cyclo[glycyl-β-methylphenylalanyl-O-[4-O-(2,3-O-cyclotridecylidenehexopyranosyl)hexopyranosyl]tyrosyl-3-(2-iminoimidazolidin-4-yl)seryl-3-(3-hexopyranosyl-2-iminoimidazolidin-4-yl)serylseryl]]
MIC Enterococcus avium (GC 4558) (Enterococcus sp.; Enterococcus avium (GC 4558)): 4 µg/mL (≈ 2.71 µM) | MIC Enterococcus faecalis (ATCC 29212) (Enterococcus sp.; Enterococcus faecalis (ATCC 29212)): 8 µg/mL (≈ 5.43 µM) | MIC Enterococcus faecalis (GC 2242) (Enterococcus sp.; Enterococcus faecalis (GC 2242)): 8 µg/mL (≈ 5.43 µM) | MIC Enterococcus faecalis (GC 2691) (Enterococcus sp.; Enterococcus faecalis (GC 2691)): 8 µg/mL (≈ 5.43 µM) | MIC Enterococcus faecalis (GC 3059) (Enterococcus sp.; Enterococcus faecalis (GC 3059)): 8 µg/mL (≈ 5.43 µM) | MIC Enterococcus faecalis (GC 4552) (Enterococcus sp.; Enterococcus faecalis (GC 4552)): 8 µg/mL (≈ 5.43 µM) | MIC Enterococcus faecalis (GC 4553) (Enterococcus sp.; Enterococcus faecalis (GC 4553)): 8 µg/mL (≈ 5.43 µM) | MIC Enterococcus faecalis (GC 4554) (Enterococcus sp.; Enterococcus faecalis (GC 4554)): 8 µg/mL (≈ 5.43 µM) | MIC Enterococcus faecalis (GC 6189) (Enterococcus sp.; Enterococcus faecalis (GC 6189)): 8 µg/mL (≈ 5.43 µM) | MIC Enterococcus faecium (GC 2243) (Enterococcus sp.; Enterococcus faecium (GC 2243)): 4 µg/mL (≈ 2.71 µM) | MIC Enterococcus faecium (GC 4556) (Enterococcus sp.; Enterococcus faecium (GC 4556)): 8 µg/mL (≈ 5.43 µM) | MIC Enterococcus faecium (GC 4557) (Enterococcus sp.; Enterococcus faecium (GC 4557)): 4 µg/mL (≈ 2.71 µM) | MIC Enterococcus avium (GC 4558) (Enterococcus sp.; [1]): 4 µg/mL (≈ 2.71 µM) | MIC Enterococcus faecalis (ATCC 29212) (Enterococcus sp.; [1]): 8 µg/mL (≈ 5.43 µM) | MIC Enterococcus faecalis (GC 2242) (Enterococcus sp.; [1]): 8 µg/mL (≈ 5.43 µM) | MIC Enterococcus faecalis (GC 2691) (Enterococcus sp.; [1]): 8 µg/mL (≈ 5.43 µM) | MIC Enterococcus faecalis (GC 3059) (Enterococcus sp.; [1]): 8 µg/mL (≈ 5.43 µM) | MIC Enterococcus faecalis (GC 4552) (Enterococcus sp.; [1]): 8 µg/mL (≈ 5.43 µM) | MIC Enterococcus faecalis (GC 4553) (Enterococcus sp.; [1]): 8 µg/mL (≈ 5.43 µM) | MIC Enterococcus faecalis (GC 4554) (Enterococcus sp.; [1]): 8 µg/mL (≈ 5.43 µM) | MIC Enterococcus faecalis (GC 6189) (Enterococcus sp.; [1]): 8 µg/mL (≈ 5.43 µM) | MIC Enterococcus faecium (GC 2243) (Enterococcus sp.; [1]): 4 µg/mL (≈ 2.71 µM) | MIC Enterococcus faecium (GC 4556) (Enterococcus sp.; [1]): 8 µg/mL (≈ 5.43 µM) | MIC Enterococcus faecium (GC 4557) (Enterococcus sp.; [1]): 4 µg/mL (≈ 2.71 µM) | MIC Staphylococcus aureus (ATCC 29213) (Staphylococcus sp.; strain ATCC 29213): 4 µg/mL (≈ 2.71 µM) | MIC Staphylococcus aureus (GC 1131) (Staphylococcus sp.; strain GC 1131): 4 µg/mL (≈ 2.71 µM) | MIC Staphylococcus aureus (GC 3051) (Staphylococcus sp.; strain GC 3051): 8 µg/mL (≈ 5.43 µM) | MIC Staphylococcus aureus (GC 3053) (Staphylococcus sp.; strain GC 3053): 4 µg/mL (≈ 2.71 µM) | MIC Staphylococcus aureus (GC 4541) (Staphylococcus sp.; strain GC 4541): 4 µg/mL (≈ 2.71 µM) | MIC Staphylococcus aureus (GC 4542) (Staphylococcus sp.; strain GC 4542): 8 µg/mL (≈ 5.43 µM) | MIC Staphylococcus aureus-SMITH (GC 4543) (Staphylococcus sp.; strain GC 4543): 4 µg/mL (≈ 2.71 µM) | MIC Staphylococcus aureus (GC 4544) (Staphylococcus sp.; strain GC 4544): 8 µg/mL (≈ 5.43 µM) | MIC Staphylococcus aureus (GC 4545) (Staphylococcus sp.; strain GC 4545): 4 µg/mL (≈ 2.71 µM) | MIC Staphylococcus haemolyticus (GC 4546) (Staphylococcus sp.; strain GC 4546): 8 µg/mL (≈ 5.43 µM) | MIC Coagulase Negative Staphylococcus (GC 4547) (Staphylococcus sp.; strain GC 4547): 4 µg/mL (≈ 2.71 µM) | MIC Coagulase Negative Staphylococcus (GC 4548) (Staphylococcus sp.; strain GC 4548): 4 µg/mL (≈ 2.71 µM) | MIC Coagulase Negative Staphylococcus (GC 4549) (Staphylococcus sp.; strain GC 4549): 2 µg/mL (≈ 1.36 µM) | MIC Coagulase Negative Staphylococcus (GC 4551) (Staphylococcus sp.; strain GC 4551): 4 µg/mL (≈ 2.71 µM) | MIC Coagulase Negative Staphylococcus (GC 6257) (Staphylococcus sp.; strain GC 6257): 4 µg/mL (≈ 2.71 µM) | MIC Escherichia coli (ATCC 25922) (Escherichia coli; Escherichia coli (ATCC 25922)): >64 µg/mL | MIC Escherichia coli (GC 4559) (Escherichia coli; Escherichia coli (GC 4559)): >64 µg/mL | MIC Escherichia coli (GC 4560) (Escherichia coli; Escherichia coli (GC 4560)): 16 µg/mL (≈ 10.9 µM) | MIC Streptococcus agalactiae (GC 4564) (Streptococcus sp.; Streptococcus agalactiae (GC 4564)): 2 µg/mL (≈ 1.36 µM) | MIC Streptococcus pneumoniae (ATCC 6301) (Streptococcus sp.; Streptococcus pneumoniae (ATCC 6301)): 0.5 µg/mL (≈ 0.339 µM) | MIC Streptococcus pneumoniae (GC 1894) (Streptococcus sp.; Streptococcus pneumoniae (GC 1894)): <0.06 µg/mL | MIC Streptococcus pneumoniae (GC 4565) (Streptococcus sp.; Streptococcus pneumoniae (GC 4565)): 0.25 µg/mL (≈ 0.17 µM) | MIC Streptococcus pyogenes (GC 4563) (Streptococcus sp.; Streptococcus pyogenes (GC 4563)): 1 µg/mL (≈ 0.679 µM) | MIC Streptococcus agalactiae (GC 4564) (Streptococcus sp.; [1]): 2 µg/mL (≈ 1.36 µM) | MIC Streptococcus pneumoniae (ATCC 6301) (Streptococcus sp.; [1]): 0.5 µg/mL (≈ 0.339 µM) | MIC Streptococcus pneumoniae (GC 1894) (Streptococcus sp.; [1]): <0.06 µg/mL | MIC Streptococcus pneumoniae (GC 4565) (Streptococcus sp.; [1]): 0.25 µg/mL (≈ 0.17 µM) | MIC Streptococcus pyogenes (GC 4563) (Streptococcus sp.; [1]): 1 µg/mL (≈ 0.679 µM)
